Assays:
[1] = Size (hydrodynamic diameter) of cationic lipid/DNA complexes by photon correlation spectroscopy; type: physicochemical; details: component alone incubated with 1% (weight/volume) poloxalkol
Protocol: The measurement of the hydrodynamic diameter is carried out with a Coulter N4Plus, using plastic cells (four transparent faces) filled with 800 μl of the various solutions, the measurement being carried out at […] in unimodal mode.
The plasmid (10 μg/ml) is placed in a solution containing 150 mM NaCl and various concentrations of poloxalkol. The lipofectant RPR 120535 is then added in order to obtain a charge ratio (+/−) 2.5. The size of the complexes is then measured by photon correlation spectroscopy according to the procedure described in Methods.
The plasmid (10 μg/ml) is placed in a solution containing 150 mM NaCl at various concentrations of poloxalkol. RPR 120531 is then added in order to obtain a charge ratio (+/−) 2.5. The size of the complexes is measured by photon correlation spectroscopy (Coulter N4plus).
Table V below represents the diameter, in nm, of the RPR 120535/DNA complexes, at the charge ratio of 2.75 (+/−) and containing 0.25 mg of DNA/ml in 150 mM NaCl, stabilized with various nonionic surface-active agents.

mice = test: Transfection in vivo after systemic injection, luciferase activity in organs; parameters: unit not given here; details: balbc mouse, 24 hours after tail vein injection
Protocol: The in vivo transfections are carried out by injecting, into the vein of the tail of 30-day-old mice, 200 μl of a solution containing 0.2 mg DNA/ml combined with a cationic lipid vector. 24 hours after the injection, the mice are humanely killed and then various organs are recovered (lung, liver, heart, kidney, spleen). These organs are then ground in a lysis buffer with the aid of an Ultraturax. The ground products obtained are then centrifuged, and then 10 μl of the supernatant is collected in order to assay the luciferase activity.
We compared the gene transfer efficiencies after systemic injections of precipitated RPR 120535/DNA complexes, and of these same complexes stabilized by the addition of Pluronic F68®. […] On the other hand, when the particles are colloidally stabilized by the addition of F68®, the luciferase activity is increased by a factor of 10 in the lungs, and expression is observed in other tissues (liver, heart).
Identical experiments to those described above were carried out using another lipid: BGTC. Similar results were obtained, namely an improvement in gene transfer in the lungs and a measurable expression in the liver, the heart and the kidneys. […] Indeed, given that nonviral lipid vectors are used, these complexes might have been expected to be destabilized by the presence of these endogenous lipids in a large quantity. The results of in vivo transfection of BGTC/DOPE/DNA complexes in the absence or in the presence of poloxalkol are assembled in Table IV below: […]

[2] = Structure of complexes by low-angle X-ray diffraction and cryo-transmission electron microscopy; type: physicochemical
Protocol: The cryo-transmission electron microscopy (cryo-TEM) experiments are carried out with 7 μl of prepared samples containing 0.5 mg of DNA/ml, which are placed on a carbon-coated copper grid covered with a membrane with holes. The grids are then immersed in liquid ethane so as to convert the liquid water to vitrified water. Next, this grid is installed inside a specimen holder cooled with liquid nitrogen and introduced into the microscope (Philips CM12) for visualization.
The low-angle X-ray diffraction experiments are carried out in the synchrotron (LURE) in Orsay (France) on the D43 line. The samples are prepared at 0.5 mg DNA/ml and then centrifuged. The pellets are deposited in a cell in which the two windows consist of kapton. A germanium-containing monochromator (111 reflection) allows the selection of the wavelength of 0.138 nm.
In this study, we have determined, by low-angle X-ray diffraction and by transmission electron microscopy, the structure of the cationic lipid transfectant/DNA complexes.

SMILES	particles detectable by Quasi-Elastic Diffusion of light [1]	luciferase activity, Heart (mice; 0% F68)	luciferase activity, Kidneys (mice; 0% F68)	luciferase activity, Liver (mice; 0% F68)	luciferase activity, Lungs (mice; 0% F68)	luciferase activity, Heart (mice; 10% F68)	luciferase activity, Kidneys (mice; 10% F68)	luciferase activity, Liver (mice; 10% F68)	luciferase activity, Lungs (mice; 10% F68)	periodicity of lamellar structure ([2]; in the absence and in the presence of poloxalkol) [nm]	size of complexes ([2]; presence of poloxalkol)
CCCCCCCCCCCCCCCCCCN(CCCCCCCCCCCCCCCCCC)C(=O)CNC(=O)CNCCCNCCCCNCCCN [RPR 120535, H2N(CH2)3NH(CH2)4NH (CH2)3NHCH2COGlyN[(CH2)17CH3]2]	does not form particles	0	0	0	2 ± 0.9	1 ± 0.4	0	2 ± 3	14 ± 0.9	–	–
CC(C)CCC[C@@H](C)[C@H]1CC[C@H]2[C@@H]3CC=C4C[C@@H](OC(=O)NCCN(CCN=C(N)N)CCN=C(N)N)CC[C@]4(C)[C@H]3CC[C@]12C [BGTC]	–	–	–	–	–	–	–	–	–	6.5	small-sized complexes

— patent publication US7470781B2, “Formulation of stabilized cationic transfection agent(s)/nucleic acid particles” (Aventis Pharma S.A., priority 1997, dated 2008)
